From paper PMC7609719 (2020)

Columns and labels:
[1] = system: ATP10 (DNA, aptamer, inosine at 9 (G9I)) ACCTGGGGGAGTATTGCGGAGGAAGGT; assay: ITC, one-site fit; conditions: Na+ (120 mM NaCl); 10 mM sodium acetate pH 5.5, 20 °C
[2] = system: Apt1d-GC2 (DNA, aptamer) TTCGGGGCGTATTGCGCAGGAA; assay: ITC; conditions: Na+ (100 mM NaCl), Mg2+ (2 mM MgCl2); 10 mM HEPES pH 7.6, 20 °C; 100 µM DNA
[3] = system: ATP3 (DNA, aptamer) ACCTGGGGGAGTATTGCGGAGGAAGGT; assay: UV melting, 260 nm; conditions: Na+ (120 mM NaCl); 10 mM sodium acetate pH 5.5; 95% ligand-bound; derived from two Tm (45.2 ± 0.5, 44.2 ± 1.5)
[4] = system: Apt1d (DNA, aptamer) TTCGGGGAGTATTGCGGAGGAA; assay: ITC; conditions: Na+ (100 mM NaCl), Mg2+ (2 mM MgCl2); 10 mM HEPES pH 7.6, 20 °C; 100 µM DNA
[5] = system: Apt1d-GC1 (DNA, aptamer) TTCGGGGAGTATTGCGCAGGAA; assay: ITC; conditions: Na+ (100 mM NaCl), Mg2+ (2 mM MgCl2); 10 mM HEPES pH 7.6, 20 °C; 100 µM DNA
[6] = system: ATP3 (DNA, aptamer) ACCTGGGGGAGTATTGCGGAGGAAGGT; assay: ITC, two-site cooperative fit; conditions: Na+ (120 mM NaCl), 10 mM sodium acetate pH 5.5, 20 °C, site 1 of 2
[7] = system: ATP7 (DNA, aptamer) ACCTGGGCGCGGGAGTATTGCGGAGCGAGGAAGGT; assay: ITC, two independent sites fit; conditions: Na+ (120 mM NaCl); 10 mM sodium acetate pH 5.5, 20 °C; 100 µM DNA; site 1 of 2
[8] = system: ATP7 (DNA, aptamer) ACCTGGGCGCGGGAGTATTGCGGAGCGAGGAAGGT; assay: UV melting, 260 nm; conditions: Na+ (120 mM NaCl); 10 mM sodium acetate pH 5.5; 95% ligand-bound; derived from two Tm (55.6 ± 0.5, 55.8 ± 0.6)
[9] = system: ATP9 (DNA, aptamer, inosine at 22 (G22I)) ACCTGGGGGAGTATTGCGGAGGAAGGT; assay: ITC, one-site fit; conditions: Na+ (120 mM NaCl); 10 mM sodium acetate pH 5.5, 20 °C
[10] = system: ATP17 (DNA, aptamer) ACCTGGGCGGGGAGTATTGCGGACGAGGAAGGT; assay: ITC, two-site cooperative fit; conditions: Na+ (120 mM NaCl); 10 mM sodium acetate pH 5.5, 20 °C; 100 µM DNA; site 1 of 2

## Nc1ncnc2c1ncn2[C@@H]1O[C@H](CO)[C@@H](O)[C@H]1O
[1]
  affinity: 188 ± 37 µM
[2]
  binding: no
[3]
  melting temperature change (ΔTm, bound minus free): -1.0 °C
[4]
  binding: yes
[5]
  binding: no
[6]; average of fits at 10-100 µM aptamer
  Kd1: 25 ± 15 µM
[7]
  Kd1: 1.3 ± 0.5 µM
[8]
  melting temperature change (ΔTm, bound minus free): 0.2 °C
[9]
  affinity: 212 ± 69 µM
[10]
  Kd1: 44 ± 8 µM

## Nc1ncnc2c1ncn2[C@@H]1O[C@H](COP(=O)(O)OP(=O)(O)O)[C@@H](O)[C@H]1O
[6]; 70 µM DNA
  Kd1: 101 ± 33 µM

## Nc1ncnc2c1ncn2[C@@H]1O[C@H](COP(=O)(O)O)[C@@H](O)[C@H]1O
[6]; 70 µM DNA
  Kd1: 86 ± 26 µM

## Nc1ncnc2c1ncn2[C@@H]1O[C@H](COP(=O)(O)OP(=O)(O)OP(=O)(O)O)[C@@H](O)[C@H]1O
[6]; 70 µM DNA
  Kd1: 133 ± 55 µM
